Measured values: patent publication US10961309B2, “Reducing systemic regulatory T cell levels or activity for treatment of disease and injury of the CNS” (Yeda Research and Development Co. Ltd, priority 2014, dated 2021)
Entries after “also recorded” stand apart in the source; their conditions may differ.

Key:
[1] = test system: hippocampal gliosis (GFAP); assay: GFAP immunostaining (astrogliosis); assay type: in vivo, mouse
Procedure: Tissue processing and immunohistochemistry were performed on paraffin embedded sectioned mouse (6 μm thick) and human (10 μm thick) brains. For human ICAM-1 staining, primary mouse anti-ICAM (1:20 Abcam; ab2213) antibody was used. Slides were incubated for 10 min with 3% H2O2, and a secondary biotin-conjugated anti-mouse antibody was used, followed by biotin/avidin amplification with Vectastain ABC kit (Vector Laboratories). Subsequently, 3,3′-diaminobenzidine (DAB substrate) (Zytomed kit) was applied; slides were dehydrated and mounted with xylene-based mounting solution. For tissue stainings, mice were transcardially perfused with PBS prior to tissue excision and fixation. CP tissues were isolated under a dissecting microscope (Stemi DV4; Zeiss) from the lateral, third, and fourth ventricles of the brain. […] Microscopic analysis, was performed using a fluorescence microscope (E800; Nikon) or laser-scanning confocal microscope (Carl Zeiss, Inc.). The fluorescence microscope was equipped with a digital camera (DXM 1200F; Nikon), and with either a 20× NA 0.50 or 40× NA 0.75 objective lens (Plan Fluor; Nikon). […] For quantification of staining intensity, total cell and background staining was measured using ImageJ software (NIH), and intensity of specific staining was calculated, as previously described (Burgess et al, 2010). […]

[2] = test system: CD11bhigh/CD45high mo-MΦ, CD4+ T cells, Foxp3+ Tregs in the brain; assay: Flow cytometry of brain parenchyma / hippocampus; assay type: in vivo, mouse
Procedure: Mice were transcardially perfused with PBS, and tissues were treated as previously described (Baruch et al, 2013). Brains were dissected and the different brain regions were removed under a dissecting microscope (Stemi DV4; Zeiss) in PBS, and tissues were dissociated using the gentleMACS™ dissociator (Miltenyi Biotec). Choroid plexus tissues were isolated from the lateral, third and fourth ventricles of the brain, incubated at 37° C. for 45 min in PBS (with Ca^2+/Mg^2+) containing 400 U/ml collagenase type IV (Worthington Biochemical Corporation), and then manually homogenized by pipetting. Spleens were mashed with the plunger of a syringe and treated with ACK (ammonium chloride potassium) lysing buffer to remove erythrocytes. In all cases, samples were stained according to the manufacturers' protocols. All samples were filtered through a 70 μm nylon mesh, and blocked with anti-Fc CD16/32 (1:100; BD Biosciences). For intracellular staining of IFN-γ, the cells were incubated with […] (10 ng/ml; Sigma-Aldrich) and ionomycin (250 ng/ml; Sigma-Aldrich) for 6 h, and Brefeldin-A (10 μg/ml; Sigma-Aldrich) was added for the last 4 h. Intracellular labeling of cytokines was done with BD Cytofix/Cytoperm™ Plus fixation/permeabilization kit (cat. no. 555028). For Treg staining, an eBioscience FoxP3 staining buffer set (cat. no. 00-5523-00) was used. The following fluorochrome-labeled monoclonal antibodies were purchased from BD Pharmingen, BioLegend, R&D Systems, or eBiosciences, and used according to the manufacturers' protocols: PE or Alexa Fluor 450-conjugated anti-CD4; PE-conjugated anti-CD25; PerCP-Cy5.5-conjugated anti-CD45; FITC-conjugated anti-TCRβ; APC-conjugated anti-IFN-γ; APC-conjugated anti-FoxP3; Brilliant-violet-conjugated anti-CD45. Cells were analyzed on an LSRII cytometer (BD Biosciences) using FlowJo software. In each experiment, relevant negative control groups, positive controls, and single stained samples for each tissue were used to identify the populations of interest and to exclude other populations.

[3] = AD-Tg/DTR+ mice, 3 weeks after last DTx injection

For `CC1=C(/C=C/C(C)=C/C=C/C(C)=C/C(=O)O)C(C)(C)CCC1` [ATRA, All-trans retinoic acid], the gliosis ([1]; 3 weeks after last ATRA injection, AD-Tg mice) was 2-3 fold increase.

With Diphtheria toxin [DTx] the “Foxp3+ Tregs among CD4+ T cells in the brain” value [2, 3] was “marked enrichment”, the “numbers of CD45high/CD11bhigh mo-MΦ and CD4+ T cells in brain parenchyma” value [2, 3] was “increased numbers; also recorded: elevated numbers” and the “hippocampal gliosis (GFAP immunostaining)” value [1, 3] was “reduced astrogliosis; also recorded: reduction in hippocampal gliosis”.

For Glatiramer acetate [GA], the “numbers of CD11bhighCD45high-expressing cells in the hippocampus” value ([2]; weekly-GA, AD-Tg non-chimeric mice, 2nd week of regimen) was “increased numbers”.
